Three compounds from US6762326B2, “C2-substituted idan-1-ones and their derivatives, processes for their preparation and their use as pharmaceuticals” (Aventis Pharma Deutschland GmbH, priority 2001, dated 2004) can be followed below.

Structures are written as SMILES.

The assay has as its system female NMRI mice. The experiment in a line: Anorectic action: cumulative evaporated milk consumption after 24 h feed removal. Format: in vivo. The following applies: versus control animals. The protocol:
The anorectic action was tested on female NMRI mice. After removal of feed for 24 hours, the preparation to be tested was administered intraperitoneally (ip) or by gavage (po). The animals were housed singly and, with free access to drinking water, they were offered evaporated milk 30 minutes after administration of the preparation. The consumption of evaporated milk was determined and the general behavior of the animals was monitored every half an hour for 7 hours. The measured milk consumption was compared to that of vehicle-treated control animals.

With `CSC1Cc2cc(Cl)ccc2C1=O` (stereo not drawn) [Example 1, 5-Chloro-2-methylsulfanylindan-1-one], the “Reduction in cumulative milk consumption as % of the control” value (“Reduction … as % of the control” for short) (10 mg/kg ip) was found to be 64%.
Regarding `CS(=O)(=O)C1Cc2cc(Cl)ccc2C1=O` (stereo not drawn) [Example 2, 5-Chloro-2-methanesulfonylindan-1-one], the “Reduction … as % of the control” value (20 mg/kg ip) was 70%.
For the compound `C[S+]([O-])C1Cc2cc(Cl)ccc2C1=O` (stereo not drawn) [Example 9, 5-chloro-2-methanesulfinylindan-1-one], the “Reduction … as % of the control” value (50 mg/kg po) amounted to 73%.
